From paper PMC7288171, “Synergistic Effects of Thiosemicarbazides with Clinical Drugs against S. aureus” (Molecules, 2020)
Converted amounts (≈) assume the structure as drawn. Where two headings read alike, the source gives them in different places.

How the values were obtained:
Assay type in all cases: cell-based
MRSA-1 = assay: MIC, clinical isolate of S. aureus; settings: Staphylococcus aureus
Experimental: (§1) The antibacterial activity of the thiosemicarbazides 1–9 and antibiotics (amoxicillin, gentamicin, levofloxacin, linezolid, and vancomycin) was tested on the Gram-positive strains (Microbiologics, St. Cloud, MN, USA) (S. aureus ATCC 25923, S. aureus ATCC 6538, S. epidermidis ATCC 12228, B. subtilis ATCC 6633, B. cereus ATCC 10876, M. luteus ATCC 10240), the Gram-negative strains (Microbiologics, St. Cloud, MN, USA) (E. coli ATCC 25922, K. pneumoniae ATCC 13883, P. mirabilis ATCC 12453, P. aeruginosa ATCC 9027), and clinical isolates of S. aureus (Medical University of Lublin, Lublin, Poland) (MSSA-1, MSSA-2, MSSA-3, MSSA-4, MRSA-1).

MSSA-2 = assay: MIC, clinical isolate of S. aureus; settings: Staphylococcus aureus
Experimental: as §1

MSSA-1 = assay: MIC, clinical isolate of S. aureus; settings: Staphylococcus aureus
Experimental: as §1

MSSA-4 = assay: MIC, clinical isolate of S. aureus; settings: Staphylococcus aureus
Experimental: as §1

MSSA-3 = assay: MIC, clinical isolate of S. aureus; settings: Staphylococcus aureus
Experimental: as §1

B. subtilis ATCC 6633 = assay: MIC, broth microdilution; settings: Bacillus subtilis, ATCC6633
Experimental: as §1

[1] = system: S. epidermidis ATCC 12228; assay: MIC, broth microdilution; settings: Staphylococcus epidermidis, ATCC12228
Experimental: as §1

S. aureus ATCC 6538 = assay: MIC, broth microdilution; settings: Staphylococcus aureus, ATCC6538
Experimental: as §1

S. aureus ATCC 25923 = assay: MIC, broth microdilution; settings: Staphylococcus aureus, ATCC25923
Experimental: as §1

M. luteus ATCC 10240 = assay: MIC, broth microdilution; settings: Micrococcus luteus, ATCC10240
Experimental: as §1

B. cereus ATCC 10876 = assay: MIC, broth microdilution; settings: Bacillus cereus, ATCC10876
Experimental: as §1

[2] = clinical isolate MRSA-1, read-out: MIC
[3] = clinical isolate MSSA-2, read-out: MIC
[4] = clinical isolate MSSA-1, read-out: MIC
[5] = clinical isolate MSSA-4, read-out: MIC
[6] = clinical isolate MSSA-3, read-out: MIC
[7] = B. s. ATCC 6633, compounds 6–9 and antibiotics, read-out: MIC
[8] = S. e. ATCC 12228, compounds 6–9 and antibiotics, read-out: MIC
[9] = S. a. ATCC 6538, compounds 6–9 and antibiotics, read-out: MIC
[10] = S. a. ATCC 25923, compounds 6–9 and antibiotics, read-out: MIC
[11] = M. l. ATCC 10240, compounds 6–9 and antibiotics, read-out: MIC
[12] = B. c. ATCC 10876, compounds 6–9 and antibiotics, read-out: MIC

Row | MIC (MRSA-1; [2]) [µg/mL] | MIC (MSSA-2; [3]) [µg/mL] | MIC (MSSA-1; [4]) [µg/mL] | MIC (MSSA-4; [5]) [µg/mL] | MIC (MSSA-3; [6]) [µg/mL] | MIC (B. subtilis ATCC 6633; [7]) [µg/mL] | MIC [1, 8] [µg/mL] | MIC (S. aureus ATCC 6538; [9]) [µg/mL] | MIC (S. aureus ATCC 25923; [10]) [µg/mL] | MIC (M. luteus ATCC 10240; [11]) [µg/mL] | MIC (B. cereus ATCC 10876; [12]) [µg/mL] | Compound | other results
1 | 1.95 (≈ 5.78 µM) | 1.95 (≈ 5.78 µM) | 1.95 (≈ 5.78 µM) | 1.95 (≈ 5.78 µM) | 0.98 (≈ 2.9 µM) | 0.98 (≈ 2.9 µM) | 0.49 (≈ 1.45 µM) | 0.98 (≈ 2.9 µM) | 1.95 (≈ 5.78 µM) | 0.98 (≈ 2.9 µM) | 0.98 (≈ 2.9 µM) | CC(=O)NC[C@H]1CN(c2ccc(N3CCOCC3)c(F)c2)C(=O)O1 [LZD, linezolid, reference compound] | –
2 | 0.98 (≈ 2.05 µM) | 0.49 (≈ 1.03 µM) | 0.98 (≈ 2.05 µM) | 1.95 (≈ 4.08 µM) | 7.81 (≈ 16.4 µM) | 0.24 (≈ 0.503 µM) | 0.12 (≈ 0.251 µM) | 0.98 (≈ 2.05 µM) | 1.95 (≈ 4.08 µM) | 0.98 (≈ 2.05 µM) | 15.6 (≈ 32.7 µM) | CNC(C)C1CCC(N)C(OC2C(N)CC(N)C(OC3OCC(C)(O)C(NC)C3O)C2O)O1 (stereo not drawn) [GN, gentamicin, reference compound] | –
3 | – | – | – | – | – | – | – | – | – | – | – | CN[C@H](CC(C)C)C(=O)N[C@H]1C(=O)N[C@@H](CC(N)=O)C(=O)N[C@H]2C(=O)N[C@H]3C(=O)N[C@H](C(=O)N[C@H](C(=O)O)c4cc(O)cc(O)c4-c4cc3ccc4O)[C@H](O)c3ccc(c(Cl)c3)Oc3cc2cc(c3O[C@@H]2O[C@H](CO)[C@@H](O)[C@H](O)[C@H]2O[C@H]2C[C@](C)(N)[C@H](O)[C@H](C)O2)Oc2ccc(cc2Cl)[C@H]1O [VA, vancomycin, reference compound] | MIC (MRSA-1; MRSA): 0.98 µg/mL (≈ 0.676 µM); MIC (MSSA-2; MSSA): 0.49 µg/mL (≈ 0.338 µM); MIC (MSSA-1; MSSA): 0.49 µg/mL (≈ 0.338 µM); MIC (MSSA-4; MSSA): 0.49 µg/mL (≈ 0.338 µM); MIC (MSSA-3; MSSA): 0.49 µg/mL (≈ 0.338 µM); MIC (B. subtilis ATCC 6633): 0.24 µg/mL (≈ 0.166 µM); MIC [1]: 0.98 µg/mL (≈ 0.676 µM); MIC (S. aureus ATCC 6538): 0.49 µg/mL (≈ 0.338 µM); MIC (S. aureus ATCC 25923): 0.98 µg/mL (≈ 0.676 µM); MIC (M. luteus ATCC 10240): 0.24 µg/mL (≈ 0.166 µM); MIC (B. cereus ATCC 10876): 0.98 µg/mL (≈ 0.676 µM)
